The values that follow come from patent US20050025839A1, “Formulation approach to enhance transporter-mediated drug uptake” (priority 2003, published 2005).

For data set [1] the following is noted: prodrug vs acyclovir, refs (9,10); cited from earlier work.
In data set [2] the target is T1, hASBT (Homo sapiens, UniProt Q12908).
T1 construct: expressed in transfected cells; host or cells: COS cells (COS-hASBT)
T1 sequence (Q12908 1-348): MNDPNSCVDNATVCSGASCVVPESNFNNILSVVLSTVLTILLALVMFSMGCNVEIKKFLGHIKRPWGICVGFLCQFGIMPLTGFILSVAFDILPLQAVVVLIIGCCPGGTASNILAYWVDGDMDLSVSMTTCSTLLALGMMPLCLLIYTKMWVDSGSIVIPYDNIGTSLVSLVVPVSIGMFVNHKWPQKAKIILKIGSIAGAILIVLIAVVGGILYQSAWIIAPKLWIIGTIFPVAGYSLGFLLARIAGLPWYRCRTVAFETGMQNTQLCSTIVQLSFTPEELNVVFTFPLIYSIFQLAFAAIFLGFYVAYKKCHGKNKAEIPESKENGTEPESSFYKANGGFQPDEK
Description: Sodium-enhanced uptake into COS-hASBT cells (FIG. 1). The settings on record: with vs without sodium. The format is cell-based. An excerpt: FIG. 1 illustrates how this invention provides for improved uptake of active agent, and specifically the impact of sodium on the uptake of an acyclovir prodrug that utilizes the hASBT transporter, which is a sodium-dependent transporter. […] COS-hASBT cells express hASBT. Acyclovir valylchenodeoxycholate is a prodrug of acyclovir, where acyclovir valylchenodeoxycholate is a substrate for hASBT. Uptake from acyclovir valylchenodeoxycholate prodrug and uptake from acyclovir are shown as closed bar and open bar, respectively. […] Error bars represent SEM's.

As for `CC(C)[C@H](NC(=O)CC[C@@H](C)[C@H]1CC[C@H]2[C@@H]3[C@H](O)C[C@@H]4C[C@H](O)CC[C@]4(C)[C@H]3CC[C@]12C)C(=O)OCCOCn1cnc2c(=O)[nH]c(N)nc21` [acyclovir valylchenodeoxycholate], in data set [1], the “in vivo oral acyclovir bioavailability” value is listed as “enhance in vivo oral acyclovir bioavailability”. The “Effect of sodium on uptake into COS-hASBT cells” value in data set [2] is reported as “enhanced by sodium”.

As for `Nc1nc2c(ncn2COCCO)c(=O)[nH]1` [acyclovir, reference compound], the “Effect of sodium on uptake into COS-hASBT cells” value in data set [2] was “did not enhance”.
